Test results from ChEMBL document CHEMBL1201862, “PubChem BioAssay data set” (2004).
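All cell lines were grown in 96-well plates and treated with compound for 48 hours. The concentration for 50% growth inhibition is given as GI50.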 Active and inactive are the calls of the source. Rule as the data show it: active = GI50 up to about 1.1 µM and inactive = higher.

Experiments:
Assay in all cases: NCI-60 cell line screen, 48 h
NCI-H226 = test system: NCI-H226
UACC-257 = test system: UACC-257
CCRF-CEM = test system: CCRF-CEM
PC-3 = test system: PC-3
DU-145 = test system: DU-145
NCI-H23 = test system: NCI-H23
IGROV-1 = test system: IGROV-1
CAKI-1 = test system: CAKI-1
Hs-578T = test system: Hs-578T
786-0 = test system: 786-0
A549 = test system: A549
LOX IMVI = test system: LOX IMVI
MCF7 = test system: MCF7
SK-MEL-28 = test system: SK-MEL-28
MDA-N = test system: MDA-N
M14 = test system: M14
EKVX = test system: EKVX
T47D = test system: T47D
K562 = test system: K562
SK-MEL-2 = test system: SK-MEL-2
SF-295 = test system: SF-295
RXF 393 = test system: RXF 393
A498 = test system: A498
MDA-MB-231 = test system: MDA-MB-231
HCT-116 = test system: HCT-116
SF-539 = test system: SF-539
HL-60 = test system: HL-60
TK-10 = test system: TK-10
SNB-75 = test system: SNB-75
SK-MEL-5 = test system: SK-MEL-5
SW-620 = test system: SW-620
HOP-92 = test system: HOP-92
HT-29 = test system: HT-29
OVCAR-5 = test system: OVCAR-5
HCT-15 = test system: HCT-15
ACHN = test system: ACHN
SK-OV-3 = test system: SK-OV-3
MDA-MB-435 = test system: MDA-MB-435
KM12 = test system: KM12
MOLT-4 = test system: MOLT-4
BT-549 = test system: BT-549
UO-31 = test system: UO-31
OVCAR-3 = test system: OVCAR-3
COLO 205 = test system: COLO 205
SN12C = test system: SN12C
UACC-62 = test system: UACC-62
NCI-H522 = test system: NCI-H522
OVCAR-8 = test system: OVCAR-8
RPMI-8226 = test system: RPMI-8226
NCI/ADR-RES = test system: NCI/ADR-RES
Malme-3M = test system: Malme-3M
SR = test system: SR
U-251 = test system: U-251
HOP-62 = test system: HOP-62
SNB-19 = test system: SNB-19
HCC 2998 = test system: HCC 2998
OVCAR-4 = test system: OVCAR-4
SF-268 = test system: SF-268
NCI-H460 = test system: NCI-H460

## NC1=NC2(COC(c3ccccc3)(c3ccccc3)c3ccccc3)OC(COC(c3ccccc3)(c3ccccc3)c3ccccc3)C(O)C2O1 (stereo not drawn)
NCI-H226
  GI50: 24.2 µM (inactive)
UACC-257
  GI50: 51.2 µM (inactive)
CCRF-CEM
  GI50: 21.3 µM (inactive)
PC-3
  GI50: 11.2 µM (inactive)
DU-145
  GI50: > 100 µM (inactive)
NCI-H23
  GI50: 23.1 µM (inactive)
IGROV-1
  GI50: 21.8 µM (inactive)
CAKI-1
  GI50: > 100 µM (inactive)
Hs-578T
  GI50: 0.258 µM (active)
786-0
  GI50: > 100 µM (inactive)
A549
  GI50: 25.1 µM (inactive)
LOX IMVI
  GI50: > 100 µM (inactive)
MCF7
  GI50: > 100 µM (inactive)
SK-MEL-28
  GI50: > 100 µM (inactive)
MDA-N
  GI50: 85.1 µM (inactive)
M14
  GI50: > 100 µM (inactive)
EKVX
  GI50: 16.4 µM (inactive)
T47D
  GI50: 53.1 µM (inactive)
K562
  GI50: 21.8 µM (inactive)
SK-MEL-2
  GI50: 5.77 µM (inactive)
SF-295
  GI50: 46.5 µM (inactive)
RXF 393
  GI50: 66.5 µM (inactive)
A498
  GI50: > 100 µM (inactive)
MDA-MB-231
  GI50: 67.1 µM (inactive)
HCT-116
  GI50: 38.3 µM (inactive)
SF-539
  GI50: 71.6 µM (inactive)
HL-60
  GI50: 8.59 µM (inactive)
TK-10
  GI50: 18.9 µM (inactive)
SNB-75
  GI50: < 0.01 µM (active)
SK-MEL-5
  GI50: 26.1 µM (inactive)
SW-620
  GI50: > 100 µM (inactive)
HOP-92
  GI50: 15.2 µM (inactive)
HT-29
  GI50: 65 µM (inactive)
OVCAR-5
  GI50: 81.7 µM (inactive)
HCT-15
  GI50: > 100 µM
ACHN
  GI50: 88.3 µM (inactive)
SK-OV-3
  GI50: > 100 µM (inactive)
MDA-MB-435
  GI50: 65.8 µM (inactive)
KM12
  GI50: 21.6 µM (inactive)
MOLT-4
  GI50: 13.2 µM (inactive)
BT-549
  GI50: 41.3 µM (inactive)
UO-31
  GI50: 13.4 µM (inactive)
OVCAR-3
  GI50: > 100 µM (inactive)
COLO 205
  GI50: 67.1 µM (inactive)
SN12C
  GI50: > 100 µM (inactive)
UACC-62
  GI50: 27.6 µM (inactive)
NCI-H522
  GI50: 52.5 µM (inactive)
OVCAR-8
  GI50: 5.98 µM (inactive)
RPMI-8226
  GI50: 16.6 µM (inactive)
NCI/ADR-RES
  GI50: 21.1 µM (inactive)
Malme-3M
  GI50: 18.4 µM (inactive)
SR
  GI50: 32.9 µM (inactive)
U-251
  GI50: > 100 µM (inactive)
HOP-62
  GI50: > 100 µM (inactive)
SNB-19
  GI50: 23 µM (inactive)

## Clc1cc2nc(C3CCCCO3)[nH]c2cc1Cl (stereo not drawn)
NCI-H226
  GI50: 86.7 µM (inactive)
UACC-257
  GI50: 59.2 µM (inactive)
CCRF-CEM
  GI50: 35.3 µM (inactive)
PC-3
  GI50: 22.3 µM (inactive)
DU-145
  GI50: 48.6 µM (inactive)
NCI-H23
  GI50: 18 µM (inactive)
IGROV-1
  GI50: 24 µM (inactive)
CAKI-1
  GI50: 29.1 µM (inactive)
Hs-578T
  GI50: 7.29 µM (inactive)
786-0
  GI50: 34 µM (inactive)
A549
  GI50: 15.1 µM (inactive)
LOX IMVI
  GI50: 20.3 µM (inactive)
MCF7
  GI50: 3.48 µM (inactive)
SK-MEL-28
  GI50: > 60.3 µM (inactive)
MDA-N
  GI50: 4.1 µM (inactive)
M14
  GI50: 28.5 µM (inactive)
EKVX
  GI50: 48.1 µM (inactive)
T47D
  GI50: 14.3 µM (inactive)
K562
  GI50: 6.47 µM (inactive)
SK-MEL-2
  GI50: > 100 µM (inactive)
SF-295
  GI50: 38.6 µM (inactive)
RXF 393
  GI50: 8.17 µM (inactive)
HCC 2998
  GI50: 38 µM (inactive)
OVCAR-4
  GI50: 34.4 µM (inactive)
MDA-MB-231
  GI50: 34.3 µM (inactive)
HCT-116
  GI50: 13.7 µM (inactive)
SF-539
  GI50: 26.8 µM (inactive)
HL-60
  GI50: 4.78 µM (inactive)
TK-10
  GI50: > 77.3 µM (inactive)
SNB-75
  GI50: 15.2 µM (inactive)
SK-MEL-5
  GI50: 6.03 µM (inactive)
SW-620
  GI50: 19.6 µM (inactive)
HOP-92
  GI50: 35.7 µM (inactive)
HT-29
  GI50: 3.5 µM (inactive)
OVCAR-5
  GI50: > 63.1 µM (inactive)
HCT-15
  GI50: 6.98 µM
SF-268
  GI50: 27.9 µM (inactive)
ACHN
  GI50: 54.8 µM (inactive)
SK-OV-3
  GI50: 15.9 µM (inactive)
MDA-MB-435
  GI50: 7.67 µM (inactive)
KM12
  GI50: 10.6 µM (inactive)
MOLT-4
  GI50: 33.3 µM (inactive)
BT-549
  GI50: 11.1 µM (inactive)
UO-31
  GI50: 11.1 µM (inactive)
OVCAR-3
  GI50: 5.09 µM (inactive)
COLO 205
  GI50: 26 µM (inactive)
SN12C
  GI50: 38.9 µM (inactive)
UACC-62
  GI50: 24.5 µM (inactive)
NCI-H522
  GI50: 2.59 µM (inactive)
OVCAR-8
  GI50: 17.7 µM (inactive)
NCI-H460
  GI50: 18.6 µM (inactive)
RPMI-8226
  GI50: 12.8 µM (inactive)
NCI/ADR-RES
  GI50: 12.1 µM (inactive)
Malme-3M
  GI50: 38.5 µM (inactive)
SR
  GI50: 4.49 µM (inactive)
U-251
  GI50: 34.3 µM (inactive)
HOP-62
  GI50: 64.7 µM (inactive)
SNB-19
  GI50: 39.7 µM (inactive)
